# Reference: PubChem BioAssay (NCI)
#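 How tested: cells in 96-well plates exposed to compound for 48 hours at five concentrations. Here, GI50 denotes the concentration required for 50% inhibition of growth. TGI denotes the concentration required for complete inhibition of growth.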
# How the values were obtained:
# Assay in all cases: DTP human tumour cell line panel, 48 h
# [1] = tested on: 786-0 renal
# [2] = tested on: A498 renal
# [3] = tested on: A549 NSCLC
# [4] = tested on: ACHN renal
# [5] = tested on: BT-549 breast
# [6] = tested on: CAKI-1 renal
# [7] = tested on: CCRF-CEM leukemia
# [8] = tested on: COLO 205 colon
# [9] = tested on: DU-145 prostate
# [10] = tested on: EKVX NSCLC
# [11] = tested on: HCC-2998 colon
# [12] = tested on: HCT-116 colon
# [13] = tested on: HCT-15 colon
# [14] = tested on: HL-60(TB) leukemia
# [15] = tested on: HOP-62 NSCLC
# [16] = tested on: HOP-92 NSCLC
# [17] = tested on: HS 578T breast
# [18] = tested on: HT29 colon
# [19] = tested on: IGROV1 ovarian
# [20] = tested on: K-562 leukemia
# [21] = tested on: KM12 colon
# [22] = tested on: LOX IMVI melanoma
# [23] = tested on: M14 melanoma
# [24] = tested on: MALME-3M melanoma
# [25] = tested on: MCF7 breast
# [26] = tested on: MDA-MB-231 breast
# [27] = tested on: MDA-MB-435
# [28] = tested on: MOLT-4 leukemia
# [29] = tested on: NCI-H226 lung
# [30] = tested on: NCI-H23 lung
# [31] = tested on: NCI-H460 lung
# [32] = tested on: NCI-H522 lung
# [33] = tested on: NCI/ADR-RES ovarian
# [34] = tested on: OVCAR-3 ovarian
# [35] = tested on: OVCAR-4 ovarian
# [36] = tested on: OVCAR-5 ovarian
# [37] = tested on: OVCAR-8 ovarian
# [38] = tested on: PC-3 prostate
# [39] = tested on: RPMI-8226 leukemia
# [40] = tested on: RXF 393 renal
# [41] = tested on: SF-268 CNS
# [42] = tested on: SF-295 CNS
# [43] = tested on: SF-539 CNS
# [44] = tested on: SK-MEL-2 melanoma
# [45] = tested on: SK-MEL-28 melanoma
# [46] = tested on: SK-MEL-5 melanoma
# [47] = tested on: SK-OV-3 ovarian
# [48] = tested on: SN12C renal
# [49] = tested on: SNB-19 CNS
# [50] = tested on: SNB-75 CNS
# [51] = tested on: SR leukemia
# [52] = tested on: SW-620 colon
# [53] = tested on: T-47D breast
# [54] = tested on: TK-10 renal
# [55] = tested on: U251 CNS
# [56] = tested on: UACC-257 melanoma
# [57] = tested on: UACC-62 melanoma
# [58] = tested on: UO-31 renal
smiles,measurement,setting,value
COc1cc(Nc2ncc3c(C)nc(-c4cccc(Oc5ccccc5)c4)n3n2)cc(OC)c1OC,GI50,[1],6.2 µM
same,TGI,[1],> 25 µM
same,GI50,[2],2.03 µM
same,TGI,[2],> 22.9 µM
same,GI50,[3],6.32 µM
same,TGI,[3],> 25 µM
same,GI50,[4],1.33 µM
same,TGI,[4],17.9 µM
same,GI50,[5],6.86 µM
same,TGI,[5],> 25 µM
same,GI50,[6],1.24 µM
same,TGI,[6],> 25 µM
same,GI50,[7],3.9 µM
same,TGI,[7],> 25 µM
same,GI50,[8],7.68 µM
same,TGI,[8],> 25 µM
same,GI50,[9],3.05 µM
same,TGI,[9],> 25 µM
same,GI50,[10],11.2 µM
same,TGI,[10],> 25 µM
same,GI50,[11],5.15 µM
same,TGI,[11],> 25 µM
same,GI50,[12],3.03 µM
same,TGI,[12],> 25 µM
same,GI50,[13],2.5 µM
same,TGI,[13],> 25 µM
same,GI50,[14],6.01 µM
same,TGI,[14],14.1 µM
same,GI50,[15],10.6 µM
same,TGI,[15],> 25 µM
same,GI50,[16],6.29 µM
same,TGI,[16],> 24.1 µM
same,GI50,[17],7.51 µM
same,TGI,[17],> 25 µM
same,GI50,[18],5.71 µM
same,TGI,[18],16.3 µM
same,GI50,[19],2.32 µM
same,TGI,[19],> 25 µM
same,GI50,[20],10 µM
same,TGI,[20],> 25 µM
same,GI50,[21],5.95 µM
same,TGI,[21],> 25 µM
same,GI50,[22],3.57 µM
same,TGI,[22],> 15.5 µM
same,GI50,[23],3.54 µM
same,TGI,[23],19 µM
same,GI50,[24],5.32 µM
same,TGI,[24],18.7 µM
same,GI50,[25],7.18 µM
same,TGI,[25],> 24.1 µM
same,GI50,[26],4.99 µM
same,TGI,[26],> 24.2 µM
same,GI50,[27],6.26 µM
same,TGI,[27],> 25 µM
same,GI50,[28],7.46 µM
same,TGI,[28],> 21.3 µM
same,GI50,[29],5.93 µM
same,TGI,[29],> 25 µM
same,GI50,[30],6.68 µM
same,TGI,[30],> 25 µM
same,GI50,[31],3.21 µM
same,TGI,[31],> 25 µM
same,GI50,[32],4.94 µM
same,TGI,[32],> 17.9 µM
same,GI50,[33],6.36 µM
same,TGI,[33],> 25 µM
same,GI50,[34],4.64 µM
same,TGI,[34],11.2 µM
same,GI50,[35],4.78 µM
same,TGI,[35],> 25 µM
same,GI50,[36],11.6 µM
same,TGI,[36],> 25 µM
same,GI50,[37],5.15 µM
same,TGI,[37],> 25 µM
same,GI50,[38],5.1 µM
same,TGI,[38],24.6 µM
same,GI50,[39],6.08 µM
same,TGI,[39],> 25 µM
same,GI50,[40],2.28 µM
same,TGI,[40],> 25 µM
same,GI50,[41],6.6 µM
same,TGI,[41],> 22.7 µM
same,GI50,[42],7.2 µM
same,TGI,[42],> 25 µM
same,GI50,[43],7.07 µM
same,TGI,[43],> 25 µM
same,GI50,[44],2.58 µM
same,TGI,[44],9.71 µM
same,GI50,[45],7.63 µM
same,TGI,[45],> 25 µM
same,GI50,[46],3.28 µM
same,TGI,[46],6.74 µM
same,GI50,[47],1.74 µM
same,TGI,[47],> 25 µM
same,GI50,[48],5.32 µM
same,TGI,[48],> 21.6 µM
same,GI50,[49],12.1 µM
same,TGI,[49],> 25 µM
same,GI50,[50],5.14 µM
same,TGI,[50],> 25 µM
same,GI50,[51],5.99 µM
same,TGI,[51],> 21.4 µM
same,GI50,[52],9.61 µM
same,TGI,[52],> 25 µM
same,GI50,[53],4.51 µM
same,TGI,[53],17.2 µM
same,GI50,[54],3.52 µM
same,TGI,[54],> 20.6 µM
same,GI50,[55],6.51 µM
same,TGI,[55],> 25 µM
same,GI50,[56],10.4 µM
same,TGI,[56],> 25 µM
same,GI50,[57],3.3 µM
same,TGI,[57],> 13.8 µM
same,GI50,[58],1.39 µM
same,TGI,[58],18.2 µM
